{"source": "paper PMC11397024", "about": "“Strategic Fluorination to Achieve a Potent, Selective, Metabolically Stable, and Orally Bioavailable Inhibitor of CSNK2” (Molecules, 2024)", "key": {"[1]": {"details": "cited from earlier work"}, "[2]": {"details": "cited from earlier work", "remark": "listed apart in the source"}, "[3]": {"test_system": "mouse hepatitis virus (MHV)", "experiment": "MHV assay (MHV-nLuc in DBT cells)", "details": "read-out: IC50 for the assay; MHV-nLuc, DBT cells; positive control"}, "[4]": {"experiment": "CellTiter-Glo cytotoxicity assay", "type": "cell-based, Human", "details": "human, A549-ACE2 cells, 48 h, CellTiter-Glo, quadruplicate", "method": "A549-ACE2 cells were maintained in low-glucose DMEM (Gibco, Waltham, MA, USA) supplemented with 10% FBS, 1% NEAA, and 1% L-glutamine. No antibiotics were used. Cells were plated at 2000 cells/well in a 384-well plate (Costar, Glendale, AZ, USA) and incubated overnight (37 °C, 5% CO2) before adding the compound. Compounds were added in quadruplicate and incubated for 48 h. DMSO percentage was constant across all concentrations of the compound. Cell viability was measured using CellTiter-Glo2 (Promega, Madison, WI, USA) and the luminescence signal was read on a GloMax plate reader (Promega, Madison, WI, USA). Dose–response analysis was performed using GraphPad Prism."}, "[5]": {"experiment": "Hepatocyte stability, human", "type": "in vitro ADME", "details": "cryopreserved hepatocytes, over 2 h", "method": "Human cryopreserved hepatocytes were supplied by BioIVT (lot QZW, 10 pooled donors, Westbury, NY, USA). Mouse cryopreserved hepatocytes were supplied by BioIVT (lot ZPG, pooled male CD-1). Vials of cryopreserved hepatocytes were removed from storage and thawed in a 37 °C water bath with gentle shaking, and then the contents were poured into a 50 mL thawing medium conical tube. Vials were centrifuged at 100× g for 10 min at room temperature. The thawing medium was aspirated, and hepatocytes were resuspended with a serum-free incubation medium to yield ~1.5 × 10^6 cells/mL. Cell viability and density were counted using AO/PI fluorescence staining, and then cells were diluted with a serum-free incubation medium to a working cell density of 0.5 × 10^6 viable cells/mL. Aliquots of 198 μL of hepatocytes were dispensed into each well of a 96-well noncoated plate. The plate was placed in an incubator for approximately 10 min. […] Peak areas were determined from extracted ion chromatograms, and the slope value, k, was determined by linear regression of the natural logarithm of the remaining percentage of the parent drug vs. incubation time curve. The intrinsic clearance (CLint in μL/min/10^6 cells) was calculated using the relationship CLint = kV/N, where V is the incubation volume (0.2 mL) and N is the number of hepatocytes per well (0.1 × 10^6 cells). […]"}, "CSNK2A2": {"molecular_target": "T1, CSNK2A2 (Homo sapiens, UniProt P19784)", "T1 construct": "expressed in transfected cells; host or cells: HEK293", "T1 sequence (P19784 whole entry)": "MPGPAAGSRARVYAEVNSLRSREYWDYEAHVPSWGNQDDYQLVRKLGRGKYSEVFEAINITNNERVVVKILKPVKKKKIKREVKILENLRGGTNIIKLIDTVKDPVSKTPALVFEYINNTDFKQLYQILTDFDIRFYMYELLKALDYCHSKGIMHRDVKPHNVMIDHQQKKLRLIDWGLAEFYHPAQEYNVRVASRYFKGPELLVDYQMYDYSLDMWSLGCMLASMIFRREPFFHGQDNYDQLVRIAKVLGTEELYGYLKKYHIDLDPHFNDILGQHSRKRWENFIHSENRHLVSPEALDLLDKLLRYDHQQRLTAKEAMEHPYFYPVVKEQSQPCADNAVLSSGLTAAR", "design": "method as in PMID 37901516", "details": "NanoBRET; cited from earlier work"}, "SARS-CoV-2": {"test_system": "SARS-CoV-2", "experiment": "SARS-CoV-2 assay in A549-ACE2 cells", "type": "cell-based", "details": "Severe acute respiratory syndrome coronavirus 2, triplicate, read-out: SARS-CoV-2 pIC50 (converted)"}, "[6]": {"test_system": "mouse hepatitis virus (MHV)", "design": "method as in PMID 37901516", "details": "cited from earlier work"}, "[7]": {"experiment": "Liver microsomal stability, human", "type": "in vitro ADME", "details": "pH 7.4, human liver microsomes, five time points over 1 h, read-out: HLM CLint"}, "CSNK2A1": {"molecular_target": "T2, CSNK2A1 (Homo sapiens, UniProt P68400)", "T2 construct": "expressed in transfected cells; host or cells: HEK293", "T2 sequence (P68400 whole entry)": "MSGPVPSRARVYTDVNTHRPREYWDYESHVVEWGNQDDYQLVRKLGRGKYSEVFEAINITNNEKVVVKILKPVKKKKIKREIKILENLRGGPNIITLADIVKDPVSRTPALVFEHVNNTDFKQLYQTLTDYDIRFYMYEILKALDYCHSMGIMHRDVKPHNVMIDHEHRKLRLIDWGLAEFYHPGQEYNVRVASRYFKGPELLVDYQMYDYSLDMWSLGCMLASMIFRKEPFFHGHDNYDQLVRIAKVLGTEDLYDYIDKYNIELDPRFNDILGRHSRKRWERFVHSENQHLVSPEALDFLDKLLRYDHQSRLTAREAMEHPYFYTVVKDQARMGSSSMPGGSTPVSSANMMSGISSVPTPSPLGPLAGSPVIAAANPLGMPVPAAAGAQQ", "design": "method as in PMID 37901516", "details": "NanoBRET; cited from earlier work"}, "[8]": {"details": "cited from earlier work", "remark": "listed apart in the source"}, "[9]": {"details": "cited from earlier work", "remark": "listed apart in the source"}}, "note": "Read-outs that look alike come from different tables or passages of the source. Marks after values point to notes of the source that are not given here."}
{"smiles": "CCC(=O)Nc1cc(Nc2cc(NC3CC3)n3ncc(C#N)c3n2)ccc1C", "note": "[SGC-CK2-1, reference compound]", "values": [{"measurement": "solubility", "setting": "[1]", "result": "poor solubility"}, {"measurement": "stability in mouse liver microsomes", "setting": "[2]", "result": "poor stability in mouse liver microsomes"}]}
{"smiles": "O=c1nc(NO)ccn1[C@@H]1O[C@H](CO)[C@@H](O)[C@H]1O", "note": "[EIDD-1931, reference compound]", "values": [{"measurement": "IC50", "setting": "[3]", "result": 1200, "unit": "nM"}]}
{"smiles": "CCC(=O)Nc1cc(Nc2cc(NC3CC3)n3ncc(C#N)c3n2)ccc1N1CCC[C@H](NC)C1", "note": "[Compound 1]", "values": [{"measurement": "viability at 48 h, 0.1 µM", "setting": "[4]; 0.1 μM", "result": 100, "unit": "%"}, {"measurement": "viability at 48 h, 1 µM", "setting": "[4]; 1.0 μM", "result": 79, "unit": "%"}, {"measurement": "CLint scaled at 1 μM", "setting": "[5]", "result": 4.1, "unit": "mL/min/kg"}, {"measurement": "CSNK2A2 pIC50", "setting": "CSNK2A2", "result": "7.7 ^f"}, {"measurement": "IC50", "setting": "SARS-CoV-2", "result": 631, "unit": "nM"}, {"measurement": "Kinetic Solubility", "setting": "[1]; pH 7.4", "result": "71 ^f μg/mL"}, {"measurement": "MHV pIC50", "setting": "[6]", "result": "6.9 ^f"}, {"measurement": "CLint scaled at 5 μM", "setting": "[7]", "result": 12.5, "unit": "mL/min/kg"}, {"measurement": "CSNK2A1 pIC50", "setting": "CSNK2A1", "result": "7.6 ^f"}, {"measurement": "AUClast", "setting": "[8]; mouse plasma, 10 mg/kg i.p.", "result": 7.01, "unit": "µM·h"}, {"measurement": "Cmax", "setting": "[8]; mouse plasma, 10 mg/kg i.p.", "result": 4.71, "unit": "µM"}, {"measurement": "Tmax", "setting": "[8]; mouse plasma, 10 mg/kg i.p.", "result": 0.25, "unit": "h"}, {"measurement": "t1/2", "setting": "[8]; mouse, in vivo, ip, 10 mg/kg", "result": 1.2, "unit": "h"}, {"measurement": "AUClast", "setting": "[8]; mouse, in vivo, iv, 1 mg/kg", "result": 1.4, "unit": "µM·h"}, {"measurement": "Vdss", "setting": "[8]; mouse, in vivo, iv, 1 mg/kg", "result": 2.6, "unit": "L/kg"}, {"measurement": "t1/2", "setting": "[8]; mouse, in vivo, iv, 1 mg/kg", "result": 1.3, "unit": "h"}, {"measurement": "Mouse Hepatocytes CLint", "setting": "[9]", "result": 143, "unit": "mL/min/kg"}]}
